Results from patent US9295247B2, “Method of using insect bait station” (ECOLAB USA INC., priority 2008, dated 2016).

Assays:
bed bugs [1] = test: Example 2: bed bug mortality after exposure to solutions of minimum risk (25(b)) pesticides via artificial membrane feeding system; format: in vivo; conditions: for efficacy against bed bugs: exposed to lower concentrations of the solutions; for level of efficacy against bed bugs relative to the other solutions: within 120 hours of exposure
Protocol: To determine whether consumption of ingredients listed under section 25(b) of the Federal Insecticide, Fungicide, and Rodenticide Act kills bed bugs, several mixtures of salt, citric acid, potassium sorbate, sodium lauryl sulfate (SLS), castor oil, sesame oil, cinnamon oil, garlic oil, citronella oil, lemongrass oil, peppermint oil, cedar oil, clove oil, rosemary oil, thyme oil, geranium oil, geraniol, and flaxseed oil were made. Oil based solutions were dissolved into 2% sodium lauryl sulfate (“SLS”) and water mixtures. Remaining ingredients were dissolved in water. Concentrations of 1%, 5%, and 50% of each solution were made. Control solutions consisted of either human blood or water depending on the test solutions in each experiment. Groups of twenty bed bugs were offered each solution via the artificial membrane feeding system described above for 60 minutes. […] Post-exposure mortality was recorded at 24 hours and 120 hours after exposure to the active solution.

bed bugs [2] = test system: bed bugs
Protocol: For the following Examples an artificial membrane feeding station was prepared and used. […] The Parafilm™ was stretched to <5.0 mils thick. The liquid bait identified in the various Examples below was placed in the sealed container.
Each solution was offered to groups of 20 bed bugs via the artificial feeding stations described above. After approximately 60 minutes, the containers of 20 bed bugs were removed from the feeding station and the number that fed to completion was recorded. Post-exposure mortality was recorded at 4 hours, 24 hours and/or 48 hours after exposure to the active solution.

bed bugs [3] = test: Example 1: post-consumption mortality of bed bugs fed on solutions via artificial membrane feeding system; format: in vivo; conditions: solution of 0.05 grams boric acid and 4.95 milliliters phosphate buffer pH 7.4; within 24 hours
Excerpt: Boric acid is an insecticidal dust that causes death upon consumption by most insects with chewing mouthparts. Bed bugs have blood-feeding, piercing/sucking mouthparts that limit their ability to pick up and consume the insecticidal dust in its powder form. To determine whether consumption of boric acid kills bed bugs, several mixtures of boric acid and phosphate buffer, DUPONT™ ADVION™ fire ant bait including indoxacarb and phosphate buffer, and just phosphate buffer solutions were made. […] Multiple groups of ten bed bugs fed on the solutions via artificial membrane feeding systems as described above, and post-consumption mortality was recorded. […]

bed bugs [4] = test: Example 3: feeding and mortality of bed bugs offered varying concentrations of sodium chloride in water; format: in vivo
Excerpt: To determine optimum concentrations of sodium chloride solutions (for both feeding and mortality), bed bugs were offered the following concentrations sodium chloride diluted in water on a weight percent basis: 0, 0.05, 0.25, 0.5%, 1%, 2%, 3%, 4%, 5%, 6%, 7%, 8%, 9%, 10%, 12%, 14%, 16%, 18%, 20%, 25%, 30%, 35%, 40%, 50%, 60%, 70%, 80%, 90%, and 100%.

With `CCCCCCCCCCCCOS(=O)(=O)[O-].[Na+]` [SLS, sodium lauryl sulfate] the “efficacy against bed bugs” value (bed bugs [1]) was “some efficacy” and the “level of efficacy against bed bugs relative to the other solutions” value (bed bugs [1]) was “highest observed levels of efficacy”.

`OB(O)O` [boric acid] was tested, and the increase in mortality (bed bugs [2]; 5% boric acid added to the sodium chloride solution) was 25-60%, the “effect on mortality compared to sodium chloride base solutions without boric acid” value (bed bugs [2]; addition of 5% boric acid) was “significantly enhanced mortality” and the “efficacy on bed bugs that consumed the solution” value (bed bugs [3]) was 100%.

With `C/C=C/C=C/C(=O)[O-].[K+]` [potassium sorbate] the efficacy (bed bugs [1]; within 120 hours, bed bugs that consumed the solutions, concentrations of 1%, 5%, 50% made) was 0%.

In the case of `[Cl-].[Na+]` [sodium chloride], the “efficacy against bed bugs” value (bed bugs [1]) is reported as “some efficacy”, the “level of efficacy against bed bugs relative to the other solutions” value (bed bugs [1]) is reported as “highest observed levels of efficacy” and the mortality (bed bugs [4]; all sodium chloride solutions up to 70% wt. sodium chloride) is reported as “some level of mortality”. The “sodium chloride concentration up to which death was recorded” value (bed bugs [4]; just from bed bugs tasting the solutions) was “up to 70 weight percent”, the “sodium chloride concentration up to which bed bugs feed to completion or engorge” value (bed bugs [4]; sodium chloride in water, offered about 60 minutes) was “up to 5%” and the “highest levels of mortality” value (bed bugs [4]; solutions containing 6-12% wt. sodium chloride, within 48 hours) was “up to 70%”. For the same compound, the “sodium chloride concentration up to which bed bugs fully engorge themselves” value (bed bugs [4]; solutions of sodium chloride and water) was “up to 5 weight percent”.

`CC(C)=CCC/C(C)=C/CO` [geraniol oil, geraniol] was tested, and the “efficacy against bed bugs” value (bed bugs [1]) was “some efficacy”.

With `O=C(O)CC(O)(CC(=O)O)C(=O)O` [citric acid] the “efficacy against bed bugs” value (bed bugs [1]) was “some efficacy” and the “level of efficacy against bed bugs relative to the other solutions” value (bed bugs [1]) was “highest observed levels of efficacy”.
